Test results from patent US9233949B2, “Treatment for oxidative stress and/or hypertension” (Georgetown University, priority 2009, dated 2016).

Assays:
[1] = test system: conscious salt-loaded spontaneously hypertensive rats; test: MAP in conscious salt-loaded SHR, daily oral gavage of drugs dissolved in DMSO; type: in vivo, rat; conditions: for Δ MAP Day 1 / Δ MAP Day 2 / Δ MAP Day 3: mean vehicle-adjusted fall, 2 mL of 10 mmol/L daily oral gavage, DMSO, n=3; for blood pressure effect, summary of Table 1: over three days, DMSO vehicle
Protocol: In another experiment, conscious salt-loaded spontaneously hypertensive rats received daily oral gavage with 2 mL of 10 mmol/L tempol, telmisartan, tempol/telmisartan ester-linked adduct (YK), tempamine/telmisartan amide-linked adduct (PLJ), and tempol+telmisartan. The drugs were dissolved in DMSO.

[2] = test system: O2.^− generated by xanthine plus xanthine oxidase; test: Cell-free SOD mimetic / antioxidant assay, lucigenin-enhanced chemiluminescence; type: biochemical; conditions: drugs 10^−4 M, cell-free buffer with xanthine plus xanthine oxidase
Protocol: Low dose (10 μmol L^−1) lucigenin-enhanced chemiluminescence was used as previously described, to detect O2.^−, antioxidants or SOD mimetic properties. Vehicle or drugs (10^−4 M) were first added to cell-free buffer with O2.^− stimulated with xanthine (25 μmol/L) plus xanthine oxidase (9 IU/mL) to study the intrinsic antioxidant properties of the drugs used (34). Subsequent studies were performed in PGVSMCs from spontaneously hypertensive rats grown in 6-well plates. Cells (10^6 cells per well) were stimulated for 4 hours with Ang II (10^−6 M) to generate O2.^− in the presence of vehicle or drugs (19, 34, 45).

[3] = test system: conscious spontaneously hypertensive rats; test: Telemetric mean arterial pressure in conscious SHR on high salt diet after gavage; type: in vivo, rat; conditions: for reduction of MAP: 80 μmol·kg^−1 once-daily gavage, high salt diet, maximal 16-24 hours after each gavage; for reduction of BP compared with tempol: after the first and the fourth gavage
Protocol: Spontaneously hypertensive rats (SHR) were anesthetized with 3% isoflurane for placement of telemetric blood pressure recorders as described (46). After 10 days, spontaneously hypertensive rats were anesthetized with halothane between 9 and 10 am and given a 2 mL gavage. Each rat was first given a training gavage with 2 mL of vehicle (0.9% w/v sodium chloride) and, two days later a second vehicle gavage as the control group. We detected no differences in the pattern of 4-hourly BP recording after the first or second vehicle gavage, compared to a day in which no gavage was given (data not shown). Blood pressure was recorded continuously. Data are presented as mean values over 4-hr periods for mean arterial pressure (MAP) and heart rate (HR). Two days after the second vehicle gavage, rats were again anesthetized with halothane and given a 2 mL gavage with one of the test drugs (10 mmol/L or 80 μmol·kg^−1). In random order rats received tempol, telmisartan, tempol plus telmisartan, or tempol/telmisartan ester-linked adduct (YK). Each rat received only one drug or drug combination. Two additional groups were tested similarly with candesartan and tempol+candesartan.
Preliminary studies were undertaken of antihypertensive responsiveness to gavage with 80 and 800 μmol kg^−1 of tempol. […] Therefore, the study was conducted in rats equilibrated to a high salt intake (Teklad Inc, 2826 Latham Drive, Madison, Wis. 53713) and given four daily doses of […] of drugs or vehicle.

[4] = test system: Ang II-stimulated spontaneously hypertensive rat preglomerular vascular smooth muscle cells; test: O2.^− generation in Ang II-stimulated PGVSMCs, lucigenin-enhanced chemiluminescence; type: cell-based
Protocol: Preglomerular vascular smooth muscle cells (PGVSMCs) were isolated from 13- to 15-week-old male spontaneously hypertensive rats purchased from Taconic Farms (Germantown, N.Y.) as previously described (3, 9). Briefly, 1% Fe2O3 in DMEM was injected into isolated kidneys through the renal artery. The iron-loaded kidney was removed from the rat, the cortex was minced and washed in a 1% collagenase IV solution. Blood vessels were collected on a magnet and incubated with DMEM/F12 supplemented with 10% FCS and 20 U of penicillin-streptomycin. Experiments were conducted between passage 5 and 15. PGVSMCs were cultured in DMEM/F12 supplemented with 10% FBS, 100 U/mL penicillin, 100 μg/mL streptomycin and 200 μg/mL glutamine at 37° C. in 5% CO2-95% air at 98% humidity. […]
To determine the effects of drugs, cells were pretreated with graded concentrations (10^−12 to 10^−4 M) of tempol, telmisartan, tempol plus telmisartan, and tempol/telmisartan ester-linked adduct or vehicle (PBS) for 2 hours. […] Chemiluminescence was quantitated in a reader (AutoLumatPlus LB 953; EG&G, Berthold, Germany). The dynamic tracing was recorded for 180 seconds after the addition of lucigenin (10 μmol·L^−1) and NADPH (100 μmol·L^−1). […] The protein concentrations were measured with Bio-Rad kit (Hercules, Calif.). […]

AT2-R = molecular target: T1, AT2-R (Bos taurus, UniProt G5E6F7); test: Angiotensin II, Type 2 receptor radioligand binding displacement; parameters: species or system bovine; conditions: 10^−8 M drug concentration, n=2 (FIG. 3B)
T1 construct: from tissue; host or cells: bovine cerebellum membranes
T1 sequence (G5E6F7 1-362): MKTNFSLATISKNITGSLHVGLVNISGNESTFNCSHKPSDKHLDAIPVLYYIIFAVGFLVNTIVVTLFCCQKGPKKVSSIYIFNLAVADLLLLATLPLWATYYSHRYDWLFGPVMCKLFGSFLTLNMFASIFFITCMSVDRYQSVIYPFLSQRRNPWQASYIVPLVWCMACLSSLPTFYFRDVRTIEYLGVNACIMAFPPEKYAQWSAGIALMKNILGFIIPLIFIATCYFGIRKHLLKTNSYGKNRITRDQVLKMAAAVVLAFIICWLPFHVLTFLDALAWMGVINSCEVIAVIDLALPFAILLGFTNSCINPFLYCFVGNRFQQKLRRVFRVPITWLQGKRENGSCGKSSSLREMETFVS
Protocol: Angiogensin II, Type 2 Assay.
The assay was performed with a membrane preparation from bovine cerebellum. 200 μL of receptor suspension was re-suspended as 400 units in 80 mL and 100 units in 20 mL. The ligand [^125I]Tyr-4-Angiotensin II ([M] 1E-^10, Kd (binding affinity) 4E-^10, Bmax 2.11 fmol/mg) was used as a control. Radioactivity was counted in DPM. The assay buffer was 50 mM TRIS-HCl, containing 100 mM NaCl, 1 mM MgCl2, 0.1 mM Bacitracin, 0.1% BSA, (pH 7.2 at 25° C.) in an assay volume of 250 μL. Radioligand: 25 μL of Sar1, Tyr4-[^125I].

SMILES: CCCc1nc2c(C)cc(-c3nc4ccccc4n3C)cc2n1Cc1ccc(-c2ccccc2C(=O)NC2CC(C)(C)N([O])C(C)(C)C2)cc1 [PLJ]
- Δ MAP Day 1 [1]: −13 mmHg
- Δ MAP Day 2 [1]: −14 mmHg
- Δ MAP Day 3 [1]: −14 mmHg
- blood pressure effect, summary of Table 1 [1]: reduce blood pressure of conscious SHR similar to telmisartan

SMILES: CCCc1nc2c(C)cc(-c3nc4ccccc4n3C)cc2n1Cc1ccc(-c2ccccc2C(=O)O)cc1 [Telmisartan, telmisartan]
- inhibition of lucigenin-enhanced chemiluminescence counts [2]: ineffective
- Δ MAP Day 1 [1]: −14 mmHg
- Δ MAP Day 2 [1]: −20 mmHg
- Δ MAP Day 3 [1]: −16 mmHg
- reduction of MAP [3]: reduced the MAP
- reduction of BP compared with tempol [3]: significantly more effective in reducing the BP than tempol

SMILES: CC1(C)CC(O)CC(C)(C)N1[O] [Tempol, tempol]
- inhibition of O2.^− generation, tempol versus telmisartan ([4]; at 10^−4 M): significantly (p<0.05) more effective than telmisartan
- Δ MAP Day 1 [1]: 0 mmHg
- Δ MAP Day 2 [1]: −4 mmHg
- Δ MAP Day 3 [1]: −2 mmHg
- blood pressure effect, summary of Table 1 [1]: apparent absence of any consistent effect
- reduction of MAP [3]: reduced the MAP
- fall in MAP, high salt (6 g·100 g^−1) compared to normal salt (0.3 g·100 g^−1) diet ([3]; pilot study, 16-24 hours after tempol 80 μmol kg^−1): twice as great
- fall in MAP after 4 daily doses compared to the first dose ([3]; pilot study, high salt intake): twice as great

SMILES: CCCc1nc2c(C)cc(-c3nc4ccccc4n3C)cc2n1Cc1ccc(-c2ccccc2C(=O)OC2CC(C)(C)N([O])C(C)(C)C2)cc1 [YK]
- inhibition of O2.^− generation ([4]; 10^−12 to 10^−4 M, 10^−6 M Ang II for 4 hours, comparison at 10^−11, 10^−10 and 10^−6 M): significantly more effective than tempol or telmisartan alone
- AT2-R binding displacement (AT2-R): without effects on AT2-R binding
- Δ MAP Day 1 [1]: −13 mmHg
- Δ MAP Day 2 [1]: −14 mmHg
- Δ MAP Day 3 [1]: −14 mmHg
- blood pressure effect, summary of Table 1 [1]: reduce blood pressure of conscious SHR similar to telmisartan
- reduction of MAP [3]: reduced the MAP
- reduction of BP compared with single drugs ([3]; 12-24 hours after the first gavage): more effective than either tempol or telmisartan
- additive effect on BP with repeated dosing ([3]; 16-24 hours after the fourth gavage): lost with repeated dosing
- reduction of MAP compared with candesartan or candesartan plus tempol ([3]; over 24 hours): reduced MAP significantly more than candesartan or candesartan plus tempol
- reduction of blood pressure compared with candesartan or candesartan plus tempol ([3]; over four days): still reduced blood pressure more than candesartan or candesartan plus tempol

SMILES: CCOc1nc2cccc(C(=O)O)c2n1Cc1ccc(-c2ccccc2-c2nnn[nH]2)cc1 [candesartan]
- reduction of MAP [3]: reduced the MAP
- reduction of BP compared with tempol [3]: significantly more effective in reducing the BP than tempol
